In US20230167467A1, “METHODS AND COMPOSITIONS FOR THE PRODUCTION OF ISOBUTENE” (University of Alaska Anchorage, priority 2020, published 2023):

Tested on: Engineered strains of E. coli
Format: cell-based
[1] = after solvent exposure, vs positive control

**Q.** `CC(C)=O` [acetone] was tested. Which “expression of accBC (fatty acid biosynthesis)” value did it give?
**A.** The value was “downregulated”.

**Q.** What about the “expression of bssRS (decreasing biofilm material)” value of the same compound?
**A.** The value was “upregulated”.

**Q.** What about the “expression of chaperone genes groLS and dnaJK” value of the same compound?
**A.** Its value is “increased expression”.

**Q.** What about the “expression of gad genes” value of the same compound?
**A.** Its value is “increase in expression”.

**Q.** And the “expression of gadABCE (acid resistance via GABA production)” value?
**A.** The value was “upregulated”.

**Q.** What about the “expression of glpABC (glycerol to glycerone phosphate)” value of the same compound?
**A.** Its value is “increased in expression”.

**Q.** What about the “expression of heat shock proteins and chaperones hslJORUV” value of the same compound?
**A.** The value was “upregulation”.

**Q.** And the “expression of ibpAB and clpAB (protein protection and repair)” value?
**A.** The value was “increased”.

**Q.** What about the “expression of marA” value of the same compound?
**A.** Its value is “upregulated”.

**Q.** What about the “change in expression of gene adiA” value [1] of the same compound?
**A.** The value was 1.50 ± 0.91.

**Q.** And the “change in expression of gene adiC” value [1]?
**A.** Its value is −0.54 ± 1.10.

**Q.** And the “change in expression of gene adiY” value [1]?
**A.** Its value is −0.57 ± 0.71.

**Q.** And the “change in expression of gene bhsA” value [1]?
**A.** The value was 4.49 ± 0.62.

**Q.** And the “change in expression of gene bssR” value [1]?
**A.** Its value is 2.34 ± .46.

**Q.** And the “change in expression of gene bssS” value [1]?
**A.** The value was 5.02 ± .88.

**Q.** What about the “change in expression of gene clpA” value [1] of the same compound?
**A.** Its value is 1.92 ± .68.

**Q.** What about the “change in expression of gene clpB” value [1] of the same compound?
**A.** Its value is 4.51 ± .69.

**Q.** What about the “change in expression of gene clpP” value [1] of the same compound?
**A.** The value was 1.39 ± 0.63.

**Q.** And the “change in expression of gene coaA” value [1]?
**A.** The value was −3.10 ± 1.0.

**Q.** And the “change in expression of gene coaD” value [1]?
**A.** The value was 0.05 ± 1.01.

**Q.** What about the “change in expression of gene cspA” value [1] of the same compound?
**A.** The value was −4.58 ± 0.64.

**Q.** And the “change in expression of gene cspB” value [1]?
**A.** Its value is −5.17 ± 1.49.

**Q.** And the “change in expression of gene cspC” value [1]?
**A.** Its value is −0.95 ± .98.

**Q.** What about the “change in expression of gene cspD” value [1] of the same compound?
**A.** The value was 2.52 ± 0.63.

**Q.** And the “change in expression of gene cspE” value [1]?
**A.** Its value is −2.45 ± 0.72.

**Q.** And the “change in expression of gene cspF” value [1]?
**A.** Its value is −5.06 ± 1.34.

**Q.** And the “change in expression of gene dhaK” value [1]?
**A.** The value was 0.26 ± 0.67.

**Q.** And the “change in expression of gene dhaL” value [1]?
**A.** The value was −0.41 ± 0.74.

**Q.** And the “change in expression of gene dnaJ” value [1]?
**A.** The value was 2.96 ± 0.74.

**Q.** And the “change in expression of gene dnaK” value [1]?
**A.** Its value is 4.58 ± 0.66.

**Q.** What about the “change in expression of gene fabA” value [1] of the same compound?
**A.** The value was −0.85 ± 0.84.

**Q.** And the “change in expression of gene fabB” value [1]?
**A.** Its value is 1.61 ± 0.72.

**Q.** What about the “change in expression of gene fabD” value [1] of the same compound?
**A.** The value was −1.74 ± 0.59.

**Q.** And the “change in expression of gene flgA” value [1]?
**A.** The value was −2.14 ± 1.68.

**Q.** What about the “change in expression of gene flgB” value [1] of the same compound?
**A.** Its value is −4.07 ± 1.67.

**Q.** What about the “change in expression of gene flgC” value [1] of the same compound?
**A.** Its value is −4.24 ± 2.06.

**Q.** And the “change in expression of gene flgD” value [1]?
**A.** Its value is −4.39 ± 2.

**Q.** And the “change in expression of gene flgE” value [1]?
**A.** Its value is −4.02 ± 1.30.

**Q.** And the “change in expression of gene flgF” value [1]?
**A.** Its value is −2.98 ± 1.7.

**Q.** What about the “change in expression of gene flgG” value [1] of the same compound?
**A.** The value was −4.98 ± 1.68.

**Q.** What about the “change in expression of gene flgH” value [1] of the same compound?
**A.** The value was −2.24 ± 1.82.

**Q.** What about the “change in expression of gene gabD” value [1] of the same compound?
**A.** The value was 0.73 ± 1.41.

**Q.** And the “change in expression of gene gabP” value [1]?
**A.** Its value is −1.06 ± 1.42.

**Q.** And the “change in expression of gene gabT” value [1]?
**A.** Its value is 0.34 ± 1.38.

**Q.** What about the “change in expression of gene gadA” value [1] of the same compound?
**A.** Its value is 4.57 ± 0.70.

**Q.** What about the “change in expression of gene gadB” value [1] of the same compound?
**A.** The value was 4.53 ± 0.82.

**Q.** What about the “change in expression of gene gadC” value [1] of the same compound?
**A.** The value was 4.83 ± 0.82.

**Q.** And the “change in expression of gene gadE” value [1]?
**A.** The value was 2.23 ± .62.

**Q.** What about the “change in expression of gene gadW” value [1] of the same compound?
**A.** The value was 1.58 ± 1.

**Q.** What about the “change in expression of gene gadX” value [1] of the same compound?
**A.** Its value is 1.71 ± 0.59.

**Q.** And the “change in expression of gene gadY” value [1]?
**A.** The value was 0.05 ± 0.83.

**Q.** And the “change in expression of gene glpA” value [1]?
**A.** The value was 4.83 ± 0.91.

**Q.** And the “change in expression of gene glpB” value [1]?
**A.** Its value is 2.81 ± 0.69.

**Q.** And the “change in expression of gene glpC” value [1]?
**A.** The value was 3.12 ± 0.87.

**Q.** What about the “change in expression of gene groL” value [1] of the same compound?
**A.** The value was 4.18 ± 0.58.

**Q.** And the “change in expression of gene groS” value [1]?
**A.** The value was 4.58 ± 0.51.

**Q.** And the “change in expression of gene hchA” value [1]?
**A.** Its value is 4.64 ± 0.64.

**Q.** What about the “change in expression of gene hslJ” value [1] of the same compound?
**A.** Its value is −0.10 ± 0.75.

**Q.** What about the “change in expression of gene hslO” value [1] of the same compound?
**A.** The value was 2.78 ± 0.69.

**Q.** And the “change in expression of gene hslR” value [1]?
**A.** Its value is 3.01 ± 0.70.

**Q.** And the “change in expression of gene hslU” value [1]?
**A.** The value was 2.69 ± 0.59.

**Q.** What about the “change in expression of gene hslV” value [1] of the same compound?
**A.** Its value is 2.24 ± 0.67.

**Q.** And the “change in expression of gene ibpA” value [1]?
**A.** The value was 5.64 ± 1.22.

**Q.** And the “change in expression of gene ibpB” value [1]?
**A.** The value was 6.70 ± 1.51.

**Q.** And the “change in expression of gene lhgO” value [1]?
**A.** The value was 1.82 ± 1.73.

**Q.** And the “change in expression of gene lipA” value [1]?
**A.** The value was −1.03 ± 0.69.

**Q.** What about the “change in expression of gene lipB” value [1] of the same compound?
**A.** The value was −1.11 ± 0.75.

**Q.** What about the “change in expression of gene narG” value [1] of the same compound?
**A.** Its value is 2.69 ± 0.70.

**Q.** What about the “change in expression of gene narH” value [1] of the same compound?
**A.** The value was 2.94 ± 0.66.

**Q.** What about the “change in expression of gene narI” value [1] of the same compound?
**A.** The value was 1.48 ± 1.02.

**Q.** And the “change in expression of gene narJ” value [1]?
**A.** Its value is 1.75 ± 0.74.

**Q.** And the “change in expression of gene narK” value [1]?
**A.** The value was 0.21 ± 0.96.

**Q.** What about the “change in expression of gene potA” value [1] of the same compound?
**A.** Its value is −3.62 ± 0.91.

**Q.** And the “change in expression of gene potB” value [1]?
**A.** The value was −2.22 ± 1.43.

**Q.** And the “change in expression of gene potC” value [1]?
**A.** The value was −3.06 ± 1.45.

**Q.** What about the “change in expression of gene pspA” value [1] of the same compound?
**A.** The value was 2.10 ± 0.60.

**Q.** And the “change in expression of gene pspB” value [1]?
**A.** The value was 0.76 ± 0.80.

**Q.** What about the “change in expression of gene rpoA” value [1] of the same compound?
**A.** Its value is −0.20 ± 0.47.

**Q.** What about the “change in expression of gene rpoB” value [1] of the same compound?
**A.** The value was −0.26 ± 0.43.

**Q.** And the “change in expression of gene rpoC” value [1]?
**A.** Its value is −0.29 ± 0.43.

**Q.** And the “change in expression of gene rpoD” value [1]?
**A.** Its value is 1.41 ± 0.72.

**Q.** What about the “change in expression of gene rpoE” value [1] of the same compound?
**A.** The value was −0.26 ± 0.66.

**Q.** What about the “change in expression of gene rpoH” value [1] of the same compound?
**A.** Its value is 1.72 ± 0.55.

**Q.** What about the “change in expression of gene rpoN” value [1] of the same compound?
**A.** The value was −1.18 ± 0.54.

**Q.** What about the “change in expression of gene rpoS” value [1] of the same compound?
**A.** Its value is 1.63 ± 0.51.

**Q.** What about the “change in expression of gene rpoZ” value [1] of the same compound?
**A.** Its value is −1.83 ± 0.60.

**Q.** What about the “change in expression of gene spy” value [1] of the same compound?
**A.** Its value is 1.90 ± 0.95.

**Q.** And the “change in expression of gene tatA” value [1]?
**A.** The value was −1.15 ± 0.57.

**Q.** What about the “change in expression of gene tatB” value [1] of the same compound?
**A.** Its value is −1.35 ± 0.65.

**Q.** What about the “change in expression of gene tatC” value [1] of the same compound?
**A.** The value was −2.55 ± 1.23.

**Q.** And the “change in expression of gene tatD” value [1]?
**A.** Its value is −1.90 ± 1.23.

**Q.** What about the “change in expression of gene tatE” value [1] of the same compound?
**A.** The value was 0.41 ± 0.70.

**Q.** And the “number of genes with significant changes in expression” value (vs control, Bon Ferroni corrected p-value<0.05)?
**A.** The value was 399 genes.
